The subject of data set [1] is baseline intra-abdominal pathogens (complicated intra-abdominal infections). Description: Phase 3 study of complicated intra-abdominal infections: clinical cure at test-of-cure. As to conditions: ME population. In kind it is in vivo, human. On the procedure:
A total of 979 adults hospitalized with complicated intra-abdominal infections were randomized and received study medications in a multinational, double-blind study comparing CXA-201 (1.5 g IV every 8 hours) plus metronidazole (500 mg IV every 8 hours) to meropenem (1 g IV every 8 hours) for 4 to 14 days of therapy. Complicated intra-abdominal infections included appendicitis, cholecystitis, diverticulitis, gastric/duodenal perforation, perforation of the intestine, and other causes of intra-abdominal abscesses and peritonitis. The primary efficacy endpoint was clinical response at the test-of-cure (TOC) visit in the microbiological intent-to-treat (MITT) population, which included all patients who had at least 1 baseline intra-abdominal pathogen. The key secondary efficacy endpoint was clinical response at the TOC visit in the microbiologically evaluable (ME) population, which included all protocol-adherent MITT patients.

Data set [2] can be described thus: clinical. To be noted: human, in vivo. From the text:
The most common adverse reactions (≥5% in either indication) occurring in patients receiving CXA-201 were nausea, headache and diarrhea. Table 3 lists adverse reactions occurring in ≥1.0% of patients receiving CXA-201 in Phase 3 clinical trials.
The majority of adverse events were mild to moderate in severity, and the incidence of treatment-limiting adverse events was <2% in both treatment groups. Epidemiology and susceptibility of organisms isolated from patients with cUTI.

A short description of data set [3]: clinical. As to conditions: human, in vivo. On the procedure:
This TQT study was a single-center, prospective, randomized, double-blind, double-dummy, placebo and active controlled, 4-way crossover study that evaluated a single therapeutic 1.5 g and a single supratherapeutic 4.5 g dose of ceftolozane/tazobactam compared with placebo. Moxifloxacin 400 mg, given orally, was used as a positive control. All subjects received study drug on 4 dosing days (Day 1, Day 5, Day 9, and Day 13) in a crossover fashion with a 3-day wash-out period between doses. Healthy men and women were randomized on a 1:1:1:1 basis to 1 of 4 dosing sequences.
Electrocardiograms were recorded (triplicate measurements) over 24 hours on Day 1, Day 5, Day 9, and Day 13 using a 12-lead Holter monitor. Blood samples for determination of ceftolozane, tazobactam, and the M1 metabolite of tazobactam levels were obtained at prespecified time intervals prior to and following each electrocardiogram (ECG) reading on dosing days. Plasma levels of ceftolozane, tazobactam, and its metabolite M1 were determined by LC/MS/MS assay.
This is another data set of the same source.

The nature of data set [4]: clinical. To be noted: human, in vivo. The procedure: The extent of ceftolozane exposure increases with decreasing renal function. […] In subjects with moderate renal impairment, exposure approximately doubles relative to that in subjects with normal renal function.
For tazobactam, this estimated exposure from a dose of 125 mg in subjects with severe renal impairment not on hemodialysis is similar to that achieved with 500 mg tazobactam in subjects with normal renal function (23.8 μg·h/mL).
The source holds these as a separate data set.

Data set [5] is described as follows: clinical. To be noted: human, in vivo. On the procedure: (§1) This was a Phase 1, multicenter, prospective, open-label study of 750 mg ceftolozane/tazobactam (as CXA-201) administered IV in male and female adult subjects with severe renal impairment (estimated CLCR<30 mL/min) and subjects with end-stage renal disease (ESRD) on hemodialysis (HD). The primary objective of the study was to determine the PK profile of ceftolozane/tazobactam in subjects with severe renal impairment and subjects with ESRD on HD and to determine the effect of HD on the clearance of ceftolozane/tazobactam.
(§2) Subjects with severe renal impairment received a single IV 1-hour infusion of 750 mg ceftolozane/tazobactam on Day 1. […] Subjects in this cohort received an IV dose of 750 mg ceftolozane/tazobactam as a 1 hour infusion immediately after their first HD session on Day 1 (post dialysis, approximately 72 hours prior to the next HD session) and a second dose of ceftolozane/tazobactam approximately 2 hours before their second HD session on Day 4 of the study. Infusion of ceftolozane/tazobactam was completed approximately 1 hour before the start of HD.
(§3) Subjects in both cohorts had urine (if not anuric) and plasma samples collected for determination of levels of ceftolozane, tazobactam and the M1 metabolite of tazobactam; subjects in the ESRD on HD cohort also had dialysate fluid samples collected for PK assessment. Plasma, urine, and dialysate levels of ceftolozane, tazobactam, and its metabolite M1 collected over a prespecified interval were determined by LC/MS/MS assay.
All subjects underwent hemodialysis for 3 to 4 hours using a high-flux membrane (either 1.4, 1.8, or 1.9 m^2) on Days 1, 4, and 6 as scheduled. Average blood flow rate was 264 to 600 mL/min and average dialysis flow rate was either 600 or 800 mL/min for all subjects with ESRD.
All cohorts received ceftolozane/tazobactam as an intravenous infusion over 1 h. The normal, mild, and moderate renal impairment cohorts received a single dose of ceftolozane/tazobactam 1,000 mg/500 mg; the severe renal impairment cohort received a single dose of ceftolozane/tazobactam 500 mg/250 mg; the ESRD cohort received a dose of ceftolozane/tazobactam 500 mg/250 mg initiated at the end of HD on day 1 and another dose initiated 2 h before HD on day 4. Subjects with ESRD underwent HD for 3 to 4 h using a high-flux membrane as scheduled; average dialysis flow rate was 600 to 800 ml/min. Revaclear hemodialyzers (Gambro, Stockholm, Sweden) were used in 5 subjects (ultrafiltration coefficient 50 to 60 ml/h/mmHg, high flux membrane of 1.4 to 1.8 m^2) and a CT 190G hemodialyzers (Baxter Healthcare, McGaw Park, Ill.) was used in 1 subject (ultrafiltration coefficient 36 ml/h/mmHg, high flux membrane of 1.9 m^2). The average blood flow rate was 400 to 600 ml/min with the exception of one subject with rates between 264 and 400 ml/min.
Plasma concentrations of ceftolozane and tazobactam were measured prior to, during, and following administration of ceftolozane/tazobactam. Blood samples were collected 30 min prior to administration, at the end of administration and at 5, 15, and 30 min and 1, 2, 3, 5, 7, 9, 11, 15, 25, and 35 h after completion of ceftolozane/tazobactam administration in the normal, mild, and moderate renal impairment cohorts. Severe renal impairment and ESRD cohorts off HD had samples taken 30 min prior to administration and at 0.5, 1, 1.5, 2, 3, 6, 9, 12, 24, 36, and 48 h after the start of administration. On the day of and following HD, the subjects with ESRD had samples taken 30 min prior to administration and at 0.5, 1, 1.5, 2, 3, 4, 5, 6, 9, 12, 24, 36, and 44 h after the start of the administration. The entire dialysate was collected at each of the following intervals: 0 to 1, 1 to 2, 2 to 3, and 3 h to the end of dialysis. Urine for PK analysis was obtained in the normal, mild, and moderate cohorts at 0 to 2, 2 to 4, 4 to 8, 8 to 12, 12 to 24, and 24 to 36 h after the start of ceftolozane/tazobactam administration.
This is another data set of the same source.

Data set [6] can be described thus: clinical. To be noted: human, in vivo, 750 mg. The procedure:
as §1, §2, §3

Data set [7] deals with baseline uropathogens (complicated urinary tract infections). Put plainly: Phase 3 study of complicated urinary tract infections incl. pyelonephritis: composite cure / microbiological eradication at test-of-cure. Format: in vivo, human. To be noted: mMITT; patients with concurrent bacteremia. The text has this: The primary efficacy endpoint was the composite microbiological and clinical cure response at the test-of-cure (TOC) visit in the microbiologically modified intent-to-treat (mMITT) population, which included all patients who received study medication and had at least 1 baseline uropathogen. The key secondary efficacy endpoint was the composite microbiological and clinical cure response at the TOC visit in the microbiologically evaluable (ME) population, which included protocol-adherent mMITT patients with a urine culture at the TOC visit.

In data set [8] the test system is Gram-negative aerobic organisms isolated from patients with cUTI. Put plainly: Susceptibility testing of baseline cUTI isolates, CLSI broth microdilution (tazobactam fixed 4 μg/mL). Format: cell-based. To be noted: mMITT; ceftolozane/tazobactam breakpoint ≤8 mg/1, levofloxacin CLSI criteria. On the procedure:
764 isolates of Gram-negative aerobic organisms were isolated from 800 patients in the microbiological modified intent-to-treat population (enrolled in 20 countries in Eastern Europe, North America, South America and 5 countries outside of these regions). Susceptibility (S) testing was performed with ceftolozane/tazobactam at a fixed 4 μg/mL of tazobactam and 10 antibiotic comparators using CLSI broth microdilution methods. ESBL enzymes were identified by PCR.
(In general: Dilution methods test growth across graded concentrations, often in twofold steps.)

Data set [9] deals with QT/QTc interval. Format: in vivo, human. To be noted: 400 mg orally, positive control.
Text: The primary objectives of the study were to evaluate the effect of a single IV supratherapeutic dose of ceftolozane/tazobactam on ventricular repolarization as measured by QTc interval in healthy subjects compared to baseline-adjusted, time-matched placebo and to evaluate the change from the period-specific predose baseline of QT/QTc interval corrected by QTcI (individual QT correction subject-specific formula) across all dose groups.

The record followed here is patent US10933053B2, “Treating infections with ceftolozane/tazobactam in subjects having impaired renal function” (MERCK SHARP & DOHME CORP., priority 2013, dated 2021).

SMILES strings stand for the structures. Marks after values point to notes of the source that are not given here.

In the case of `C[C@@H](O)[C@H]1C(=O)N2C(C(=O)O)=C(S[C@@H]3CN[C@H](C(=O)N(C)C)C3)[C@H](C)[C@H]12` [Meropenem, meropenem], the “Per pathogen clinical cure rate” value in data set [1] (Aerobic Gram-negative) is given as “(93.8) %”. The “Per pathogen clinical cure rate” value in [1] (Aerobic Gram-positive) is on record as “(91.9) %”. In addition, the “Per pathogen clinical cure rate” value in data set [1] (Anaerobic Gram-negative) is given as “(96.4) %”. The “Per pathogen clinical cure rate” value in data set [1] (Bacteroides thetaiotaomicron) is recorded as “(93.0) %”. Moreover, in data set [1] (Klebsiella pneumoniae (CTX-M-15 ESBL-producing)), the “Per pathogen clinical cure rate” value was “(0) %”. Further, in data set [2], the ALT increased was 5 (1.0), the AST increased is 3 (0.6), the Abdominal pain is 2 (0.4) and the Constipation is reported as 6 (1.2). Besides, in data set [2], the Diarrhea was 25 (5.0), the Headache is recorded as 9 (1.8), the Nausea is recorded as 29 (5.8) and the Vomiting is given as 20 (4.0).
As to `C[C@](Cn1ccnn1)([C@@H](N)C(=O)O)S(=O)O` [M1 Metabolite], in [3], the Median tmax stood at 3.7 h. Further, the “t1/2, geometric mean” value in data set [4] is reported as 6.67 h. In [5], the “AUC0-∞” value is 31.0 (23.4-34.9) μg * hr/mL; the “AUC48h Ratio (Day 3:1), median (range)” value is recorded as 0.49 (0.38-0.78); the AUC(0-t) is listed as 26.8 (3.77-32.0) μg * hr/mL; the “AUCt0-t1, median (range)” value is 27.5 (3.8-32.7) μg * hr/mL. Moreover, in data set [5], the “Change in Concentration” value was 9.1 (0.5-14.5), the Clast is given as 0.41 (0.26-1.11) μg/mL, the “Clast lower than Cmax” value was about 26 fold and the Cmax is reported as 10.9 (1.26-15.7) μg/mL. Further, in data set [5], the “Concentration after HD” value was 0.4 (0.3-1.1) μg/mL; the “Concentration before HD” value is reported as 9.4 (1.4-14.9) μg/mL; the “Half-Life, median (range)” value is listed as 368.4^a hr; the “Percent Removed” value was 93.4 (38.1-97.7) %. Also, in [5], the “Percent Removed, median (range)” value was 51 (22-63); the Tmax was 1.50 (0.50-1.50) hr; the half-life is on record as 1.80 (0.68-2.38) hr; the “median RDHD (percent reduction in plasma concentration during HD)” value is recorded as 93%. Further, in [5], the “median dialysis clearance (CLD)” value was found to be 4.59 L/h, the removed by dialysis is about 51% and the “t1/2 during the HD period (median)” value stood at 1.80 h. Also, in data set [6], the “AUClast, mean (CV %)” value is recorded as 53.7 (25) μg · h/mL and the “AUC∞, mean (CV %)” value is reported as 60.3 (30) μg · h/mL.
On to `C[C@H]1COc2c(N3CCN(C)CC3)c(F)cc3c(=O)c(C(=O)O)cn1c23` [Levofloxacin, levofloxacin], for which, in data set [2], the ALT increased was 5 (0.9); the AST increased is 5 (0.9); the Abdominal pain is reported as 2 (0.4); the “Adverse events occurred, patients” value was 34.4%. In data set [2], the Constipation is 17 (3.2), the Diarrhea is 23 (4.3), the Headache was 26 (4.9) and the Nausea was 9 (1.7). Also, in data set [2], the Vomiting is recorded as 6 (1.1), the gastrointestinal symptoms was 11.4%, the headache was found to be 4.9% and the “incidence of treatment-limiting adverse events” value was under 2%. Also, the composite cure rate in data set [7] was found to be 57.6%. Also, the “gram-negative pathogens isolated at baseline that were susceptible” value in data set [8] is 70.7%.
With `COc1c(N2C[C@@H]3CCCN[C@@H]3C2)c(F)cc2c(=O)c(C(=O)O)cn(C3CC3)c12` [moxifloxacin], in data set [9], the “95% lower confidence bound on difference from baseline for QTcI vs placebo” value is “above 5 ms”.
